Results taken from paper PMC9964746, “Mechanism of Action and Structure–Activity Relationships of Tetracyclic Small Molecules Acting as Universal Positive Allosteric Modulators of the Cholecystokinin Receptor” (Membranes, 2023).
Where “and” joins values, the source holds several entries; their conditions need not be identical. Equal entries are not always repeated.

Legend:
[1] = biological target: T1, vasopressin-2 receptor (AVP2R) (Homo sapiens, UniProt P30518); assay: AVP2R cAMP HTRF accumulation assay; type: cell-based; conditions: for AVP2R PAM (cAMP) Score (activity score = normalized Emax × pEC50): PAM format
T1 construct: expressed in transfected cells; host or cells: CHO-K1 (PAM format); HEK-293 (agonist format)
T1 sequence (P30518 whole entry): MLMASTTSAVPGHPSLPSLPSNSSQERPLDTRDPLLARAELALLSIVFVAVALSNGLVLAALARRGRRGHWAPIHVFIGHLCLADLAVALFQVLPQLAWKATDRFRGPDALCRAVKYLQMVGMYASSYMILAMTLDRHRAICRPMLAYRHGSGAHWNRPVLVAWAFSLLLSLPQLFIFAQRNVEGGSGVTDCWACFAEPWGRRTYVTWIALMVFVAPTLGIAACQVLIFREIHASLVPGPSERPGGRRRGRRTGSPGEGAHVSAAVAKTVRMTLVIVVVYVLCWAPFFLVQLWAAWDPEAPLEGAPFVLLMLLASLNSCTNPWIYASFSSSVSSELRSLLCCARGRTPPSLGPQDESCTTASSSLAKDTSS
Outline: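 CHO-K1 AVP2R cells (PAM format) or HEK-293 AVP2R cells (agonist format) incubated 30 min at room temperature with compounds and vasopressin in HBSS with 5 mM HEPES, 0.5 mM IBMX, 0.075% BSA. cAMP read by HTRF after 30 min; 16-point 2-fold dose–response in duplicate.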

[2] = biological target: T2, CCK1R (Homo sapiens, UniProt P32238); assay: IP-One accumulation TR-FRET assay, PAM format, HEK-293 CCK1R cells; type: cell-based; design: expressed in transfected cells; host or cells: HEK-293; conditions: for Emax: HEK293; for EC50: PAM format with EC20 CCK
T2 sequence (P32238 1-428): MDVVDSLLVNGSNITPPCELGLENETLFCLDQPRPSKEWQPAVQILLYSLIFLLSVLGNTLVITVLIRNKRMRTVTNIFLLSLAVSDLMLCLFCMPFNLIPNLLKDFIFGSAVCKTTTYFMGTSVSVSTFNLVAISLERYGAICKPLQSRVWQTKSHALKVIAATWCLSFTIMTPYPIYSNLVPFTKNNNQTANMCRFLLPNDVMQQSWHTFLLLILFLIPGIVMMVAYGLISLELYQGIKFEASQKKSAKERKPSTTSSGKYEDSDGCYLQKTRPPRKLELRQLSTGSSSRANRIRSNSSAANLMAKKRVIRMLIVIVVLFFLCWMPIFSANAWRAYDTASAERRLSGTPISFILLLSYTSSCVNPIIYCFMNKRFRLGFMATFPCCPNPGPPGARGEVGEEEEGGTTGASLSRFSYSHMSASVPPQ
Outline: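 HEK-293 cells overexpressing CCK1R were plated overnight, then given compounds (top 50 µM, 16-point 2-fold) for 30 min at 37 °C. CCK stimulator with 50 mM LiCl (PAM format) or DMSO (agonist format) followed for 1 h. IP-One was read by TR-FRET; activity score = CCK-normalized Emax × pEC50.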

[3] = CHO-K1 AVP2R cells, PAM format with vasopressin, original hits: agonist and PAM data combined, average ± SD
[4] = HEK-293 CCK1R cells, PAM format, relative to CCK control, average ± SD
[5] = HEK-293 CCK1R cells, PAM format
[6] = HEK-293 CCK1R cells, average ± SD

Emax [1, 3] | CCK1R PAM (IP-One) Score (activity score = normalized Emax × pEC50) ([2]; HEK-293 CCK1R cells, PAM format, listed as hit 6) | SMILES | Emax ([1]; CHO-K1, CHO-K1 AVP2R cells, PAM format with vasopressin, original hits: agonist and PAM data combined, average ± SD) | AVP2R PAM (cAMP) Score (activity score = normalized Emax × pEC50) ([1]; CHO-K1 AVP2R cells) | AVP2R PAM (cAMP) Emax [1, 3] | EC50 [1, 3] | Log(Rmax/R50) ([2]; CCK1R IP-One PAM assay) | Emax [2, 4] | CCK1R PAM (IP-One) Score (activity score = normalized Emax × pEC50) [2, 5] | EC50 [2, 6] | CCK1R PAM (IP-One) Emax [2, 4] | CCK1R PAM (IP-One) Score (activity score = normalized Emax × pEC50) ([2]; HEK-293 CCK1R cells, PAM format, listed as hit 1) | AUC relative to AUC of endogenous agonist CCK ([2]; from activity scores, CCK1R IP-One)
 |  | CCN(CC)CCNc1ncnc2c1sc1nc(N3CCOCC3)c3c(c12)CCCC3 [CMP-1] | 21% | 1.0 and 1.02 | 20.7 ± 9.8% | 12 ± 7.1 µM | 4.7 | 60% | 2.94 | 12.8 ± 4.6 µM | 63 ± 18% | 2.9 | approximately 29%
73 ± 16% | 1.7 | CCCc1nc2oc3c(NCCCN(C)C)ncnc3c2c2c1CCCC2 [CMP-28] |  | 3.53 |  | 15 ± 13.6 µM |  | 35 ± 13% | 1.66 | 9.5 ± 3.5 µM |  |  | 
